Data reported in patent US20050215530A1, “Combination therapy for the treatment of cancer” (priority 2002, published 2005).

Legend:
human LoVo tumour cells = assay: LoVo tumour model; type: in vivo, athymic nude mice; conditions: s.c. LoVo xenograft; ZD6126 200 mg/kg i.p. day 0; ZD1839 200 mg/kg/day p.o. days 0-13; 8 mice per group
Description: Athymic nude mice were implanted subcutaneously with 1.5×10^7 human LoVo tumour cells (obtained from European Collection of Cell Cultures, ECACC, CAMR, Salisbury, Wiltshire, SP4 0JG, UK; Cat. no. CCL 229) and tumours allowed to grow until they were approximately 9 mm in diameter. Groups of 8 tumour bearing mice were then treated as follows: • Control animals were dosed with PBSA 0.1 ml/10 g intraperitoneally (i.p.) single bolus on day 0 then about 2 h hours later 0.1% Tween 80 0.1 ml/10 g orally (p.o.) on day 0, followed by 0.1% Tween 80 0.1 ml/10 g p.o. once daily on days 1-13; • ZD6126 alone was dosed 200 mg/kg i.p. on day 0; • ZD1839 alone was dosed 200 mg/kg/day p.o. on days 0-13; and
(in the combination arm) ZD6126 200 mg/kg i.p. on day 0 then about 2 hours later ZD1839 200 mg/kg p.o. dosed on day 0, followed by ZD1839 200 mg/kg p.o. once daily on days 1-13. Tumour growth was measured twice weekly from calliper measurements of tumour diameter and the time taken for tumours to double in size compared using the Mann-Whitney U statistic.

tumour vasculature = conditions: reported in Proc. Am Assoc. Cancer Res. 2000; 41: 329; cited from earlier work
A549 human NSCLC cells = assay: A549 NSCLC xenograft model; conditions: for Tumour size: day 42 after tumour implantation, RT 4 Gy days 8, 9, 15, 16, ZD6126 150 mg/kg i.p. days 10, 17, ZD1839 2.5 mg per day p.o. days 7-11 and 14-18
Description: A549 NSCLC Xenograft Model
A human non-small cell lung cancer (NSCLC) xenograft model was used. Athymic nude mice were injected subcutaneously (s.c.) with A549 human NSCLC cells. Treatment began after 7 days when tumours were established (tumour volume=100-300 mm^3). […] Animals in all groups were sacrificed on day 42 after tumour cell implantation, when the control tumours reached approximately 2.0 cm^3.

Structure (SMILES) | Growth delay in days for tumours to double in size (human LoVo tumour cells) | effect on tumour vasculature (in words) (tumour vasculature) | inhibition of tumour growth (in words) (A549 human NSCLC cells; A549 xenograft, compared with control animals or single agents) | Tumour size (A549 human NSCLC cells) [cm^3 S.D.]
COc1cc2c(c(OC)c1OC)-c1ccc(OP(=O)(O)O)cc1[C@@H](NC(C)=O)CC2 [ZD6126, N-acetylcolchinol-O-phosphate] | 3.6 days; p < 0.05 | selectively disrupts tumour vasculature leading to vessel occlusion and extensive tumour necrosis | marked inhibition of tumour growth | 1.17 ± 0.10
COc1cc2ncnc(Nc3ccc(F)c(Cl)c3)c2cc1OCCCN1CCOCC1 [ZD1839, N-(3-chloro-4-fluorophenyl)-7-methoxy-6-(3-morpholinopropoxy)quinazolin-4-amine, reference compound] | 8.3 days; p < 0.01 | – | – | 1.41 ± 0.08
